This is an account of results in PMC5467147, “Identification of a Peptide for Systemic Brain Delivery of a Morpholino Oligonucleotide in Mouse Models of Spinal Muscular Atrophy” (Nucleic Acid Therapeutics, 2017).

One series deals with patients. Conditions: human, in vivo; cited from earlier work.
Another series has as its system SMN2 pre-mRNA exon 7. Put plainly: In vivo screening of P-PMOs in neonatal SMA mice at PND4, full-length SMN2 by RT-qPCR. As to conditions: facial vein at PND4, 2.66 nmol P-PMO, harvest 7 days after treatment, normalized to total SMN2, relative to saline, mean ± SEM, n = 4–6. Details: species or system mouse. For orientation: Quantitative PCR measures a nucleic acid by following its amplification.

Series [1] relates to severe SMA (Smn1tm1Hung/tm1Hung;SMN2tg/o) mice. The series can be described thus: Survival and phenotype of severe newborn SMA mice treated at PND0 and PND2. The format is in vivo, mouse. Conditions: severe SMA pups. On the procedure: Experiments were carried out in the Biomedical Sciences Unit, University of Oxford, according to procedures authorized by the UK Home Office and approved by the Unit Approval Board. Experiments were carried out using the SMA-like mouse strain FVB.Cg-Smn1^tm1HungTg(SMN2)2Hung/J. For the purposes of welfare, the peptide screen was carried out on hemizygotic (Smn1^tm1Hung/wt;SMN2^tg/tg) pups generated as previously described. Each litter (n = 4–6 per P-PMO) at PND4 was injected with P-PMO (2.6 nmol) in 10–15 μL of 0.9% saline. The control litter was injected with 0.9% saline. Neonatal mice were euthanized 7 days postinjection and brains, kidneys, and quadriceps were extracted and frozen on dry ice before RNA extraction. The Br-ApoE (K→A)-PMO and Br-ApoE (K→A)-scrambled PMO were further analyzed in homozygotic pups (Smn1^tm1Hung/tm1Hung;SMN2^tg/o) generated as previously described. Pups used for phenotype assessment were injected with 10 μg/g (1 nmol) Br-ApoE (K→A)-PMO, Br-ApoE (K→A)-scrambled PMO, SMA-PMO through the facial vein at PND0 and PND2. Treated animals were weighed daily and observed for survival longevity. A humane endpoint was determined by mobility and weight. Animals who had reached their humane endpoint were euthanized by rising CO2.
Pups were also tested from PND2 to PND12 for hindlimb strength and […]. Hindlimb strength was scored using a hindlimb suspension (HLS) test developed by PsychoGenics, Inc. and described in the standardized protocols and procedures for preclinical studies by TREAT-NMD. The HLS score relates to the position of the legs and tail of pups suspended by their hindlimbs onto the lip of a 50-cc test tube. A score of 0 − 4 is given with the 0 relating to the weakest phenotype (feet clasped and tail down) and a 4 given to the strongest phenotype (legs spread and tail up). For the purposes of reproducibility, factors such as leg pulls and time were left out of the analysis. Righting reflex was measured by placing pups on their back and timing their ability to right themselves onto all four paws.

For another series, the system named is SMNΔ7 mice. Conditions: newborn SMNΔ7 mice, single ICV injections (27, 54, and 81 μg) at P0; cited from earlier work. On the procedure:
PMO is used in several clinical and preclinical studies due to its high stability and low toxicity. The PMO sequence PMO20, also known as HSMN2Ex7D(−10,-29), has been previously studied by Porensky et al.. Single ICV injections (27, 54, and 81 μg) of this PMO in newborn SMNΔ7 mice at P0 increased the levels of both full-length SMN2 RNA transcript in the brain and spinal cord as well as SMN protein and yielded an increased survival of >100 days. In a similar study, Zhou et al. used the same PMO sequence [PMO20 (−10, −29)] as well as PMO18 (−10, −27) and PMO25 (−10, −34 ...

Regarding Nusinersen, the “patients who developed side effects such as headache, back pain, and postlumbar puncture syndromes” value with patients is given as 32 % of patients.
As for “SMA-PMO: unconjugated 20-mer PMO for SMN2 exon-7 inclusion, 5′-ATTCACTTTCATAATGCTGG-3′ (all phosphorodiamidate morpholino (PMO))”, in the series on SMN2 pre-mRNA exon 7, the “full-length SMN2 transcript, Brain” value was found to be 1 ± 0.02; the “full-length SMN2 transcript, Kidney” value worked out at 1 ± 0.04; the “full-length SMN2 transcript, Quad (quadriceps)” value amounted to 1.25 ± 0.05. In series [1] (10 μg/g facial vein at PND0 and PND2, days by b51, saline 6–13), the “age range (survival)” value is 11–49. For the same substance, the median survival in series [1] (two doses of 10 mg/kg (10 μg/g) facial vein at PND0 and PND2, saline 10.5 days) came to 29 days. In addition, the “hindlimb strength (hindlimb suspension tube test)” value in series [1] (two doses of 10 mg/kg at PND0 and PND2, PND2 to PND12) is reported as “gradual decline in muscle strength”. The survival in the series on SMNΔ7 mice is given as above 100 days.
Regarding AngioPep-2, in the series with SMN2 pre-mRNA exon 7, the “full-length SMN2 transcript, Brain” value came out at 1 ± 0.03; the “full-length SMN2 transcript, Kidney” value was 1.07 ± 0.07; the “full-length SMN2 transcript, Quad (quadriceps)” value is recorded as 1.24 ± 0.1.
